Test results reported in PubChem BioAssay (NCI).
Values joined by “and” are separate entries in the source; they are usually repeats but may differ in a detail not shown here. Identical values can stand only once.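 Interpolation was linear, between the two tested concentrations surrounding the appropriate level; five concentrations were tested over 48 hours in 96-well plates. GI50 = concentration required for 50% inhibition of growth. Definition used: TGI = concentration required for complete inhibition of growth.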

Experiments:
Assay in all cases: inhibition of tumour cell growth, NCI panel, 48 h
[1] = system: OVCAR-3 ovarian
[2] = system: SF-295 CNS
[3] = system: HCT-116 colon
[4] = system: NCI-H522 lung
[5] = system: SK-OV-3 ovarian
[6] = system: MDA-N
[7] = system: HOP-62 NSCLC
[8] = system: RXF 393 renal
[9] = system: NCI/ADR-RES ovarian
[10] = system: SK-MEL-2 melanoma
[11] = system: SK-MEL-5 melanoma
[12] = system: SF-268 CNS
[13] = system: COLO 205 colon
[14] = system: LOX IMVI melanoma
[15] = system: OVCAR-4 ovarian
[16] = system: OVCAR-5 ovarian
[17] = system: SNB-19 CNS
[18] = system: UACC-62 melanoma

Structure (SMILES)	TGI [1]	TGI [2]	TGI [3]	TGI [4]	TGI [5]	TGI [6]	TGI [7]	TGI [8]	TGI [9]	TGI [10]	TGI [11]	TGI [12]	TGI [13]	TGI [14]	TGI [15]	TGI [16]	TGI [17]	TGI [18]	GI50 [7]	GI50 [8]
COc1ccc2oc(=N)c(C(=O)Nc3ccccc3)cc2c1	> 100 µM	43.9 µM	> 100 µM	6.4 µM	39.7 µM	48.4 µM	41.7 µM	42.3 µM	44 µM	37.4 µM	> 100 µM	53.9 µM	> 100 µM	> 100 µM	> 100 µM	> 100 µM	> 100 µM			
C/C1=C\[C@H](C)C[C@H](C)OC(=O)[C@H](C)NC(=O)[C@@H](Cc2ccc(O)c(Br)c2)N(C)C(=O)[C@H](C)NC(=O)[C@@H](C)C1	3.84 µM	4.9 µM	> 12.2 µM	1.35 µM	2.04 µM	> 25 µM	0.112 µM	0.858 µM	> 19.8 µM	9.34 µM	0.315 µM	1.57 µM	> 25 µM	0.394 µM	1.92 µM	> 25 µM	9.32 µM	> 25 µM		
C=CC1(C)CC(=O)C2(O)C(C)(O1)C(OC(C)=O)C(O)C1C(C)(C)CCC(O)C12C (stereo unspecified)	> 150 µM	> 150 µM	> 150 µM	> 150 µM	> 120 µM		> 150 µM	90.6 µM and > 119 µM	> 130 µM	> 150 µM	> 102 µM	> 150 µM	> 122 µM	> 150 µM	> 122 µM	45.5 µM	> 150 µM	101 µM	> 83.2 µM	4.98 µM
COc1ccc(N2C(=O)C3c4[nH]c5cc(C)ccc5c4C4CCC(C(C)(C)C)CC4C3C2=O)cc1 (stereo unspecified)	> 10 µM	> 10 µM	> 10 µM	> 10 µM	> 10 µM	> 10 µM	> 10 µM	> 10 µM	> 10 µM	> 10 µM	> 10 µM	> 10 µM	> 10 µM	> 10 µM	> 10 µM	> 10 µM	> 10 µM	> 10 µM		
COC1OC2COC(c3ccccc3)OC2C(O)C1OC(=S)c1ccccc1 (stereo unspecified)	> 100 µM	> 100 µM			> 100 µM	80.9 µM	91.4 µM	> 100 µM	> 100 µM	> 100 µM	61.3 µM	> 100 µM	33 µM	21.4 µM	> 100 µM	> 100 µM	> 100 µM	> 100 µM		
CC1(C)CCc2c(ccc(C(=O)/C=C/c3ccc(O)cc3)c2O)O1	18.3 µM	26.1 µM	20 µM		74.6 µM		19.4 µM	20.4 µM	21.6 µM	23.5 µM	22 µM	23.2 µM	20.7 µM	19.8 µM	19.6 µM	21.7 µM	25.8 µM	19.6 µM		
OC(C#CCN1CCCC1)(c1ccccc1)c1ccccc1Cl (stereo unspecified)	> 100 µM	45.8 µM	85.2 µM	41.6 µM	> 100 µM	50.9 µM	38.7 µM	> 100 µM	94.8 µM	61.5 µM	31.5 µM	> 100 µM	25 µM	33.4 µM	80.7 µM	> 100 µM		57.5 µM		
